Values after ≈ are worked out from the molar mass of the structure shown. Values joined by “and” are separate entries in the source; they are usually repeats but may differ in a detail not shown here. Equal values may be shown once.
How the values were obtained:
[1] = Toxicity in brine shrimp assessed as lethal dose; settings: artemia salina; read-out: LD50 (the source's name)
Nitzschia amabilis = assay: Growth inhibition of marine diatom assessed as inhibition rate at 10 ug/ml relative to control; format: functional
N2a = assay: Cytotoxicity against mouse Neuro2a cells assessed as inhibition of cell growth; format: functional, cell-based
[2] = target: Protein kinase C delta type (Homo sapiens, UniProt Q05655); assay: Inhibition of [3H]-PDBu binding to PKCdelta C1B domain (unknown origin) by competitive binding assay
L1210 [3] = assay: Cytotoxicity against mouse L1210 cells assessed as inhibition of cell growth; format: functional, cell-based
[4] = Toxicity in shrimp assessed as lethal dose; settings: palaemon paucidens
NCI-H460 = assay: Cytotoxicity against human NCI-H460 cells; format: functional, cell-based
L1210 [5] = assay: Cytotoxicity against mouse L1210 cells assessed as inhibition of cell growth at 10 ug/mL relative to control; format: functional; settings: for inhibition at 10 µg/mL: Mus musculus, L1210, dose 10 µg/ml
MCF7 = assay: Cytotoxicity against human MCF7 cells assessed as inhibition of cell growth; format: functional, cell-based
MDA-MB-231 = assay: Cytotoxicity against human MDA-MB-231 cells assessed as cell growth inhibition; format: functional
HT-29 = assay: Cytotoxicity against human HT-29 cells assessed as cell growth inhibition; format: functional
[6] = tested on: Mycobacterium tuberculosis; assay: Antimycobacterial activity against Mycobacterium tuberculosis H37Rv assessed as inhibition of bacterial growth at 12.5 ug/ml relative to control; format: functional
A549 = assay: Cytotoxicity against human A549 cells assessed as cell growth inhibition; format: functional, cell-based

Sequence of Protein kinase C delta type (Q05655 whole entry, the tested form may be a part): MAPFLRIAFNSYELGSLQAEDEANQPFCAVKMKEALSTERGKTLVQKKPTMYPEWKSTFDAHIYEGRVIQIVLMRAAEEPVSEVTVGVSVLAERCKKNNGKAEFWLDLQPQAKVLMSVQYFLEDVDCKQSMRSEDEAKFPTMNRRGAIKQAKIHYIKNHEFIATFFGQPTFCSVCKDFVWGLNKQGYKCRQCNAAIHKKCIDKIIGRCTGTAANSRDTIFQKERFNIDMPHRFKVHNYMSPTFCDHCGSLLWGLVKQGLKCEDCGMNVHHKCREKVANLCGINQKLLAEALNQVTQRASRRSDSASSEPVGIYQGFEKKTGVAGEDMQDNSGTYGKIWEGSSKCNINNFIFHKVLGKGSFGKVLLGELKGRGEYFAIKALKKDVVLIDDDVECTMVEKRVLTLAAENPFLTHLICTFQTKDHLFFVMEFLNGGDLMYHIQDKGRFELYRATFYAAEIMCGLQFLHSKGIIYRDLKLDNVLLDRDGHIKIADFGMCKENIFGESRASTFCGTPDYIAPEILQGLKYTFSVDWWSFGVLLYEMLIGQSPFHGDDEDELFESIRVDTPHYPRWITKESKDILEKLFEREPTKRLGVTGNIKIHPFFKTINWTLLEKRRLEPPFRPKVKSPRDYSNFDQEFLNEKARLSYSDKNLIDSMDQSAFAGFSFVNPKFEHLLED

COC(=O)[C@H](CCC#CC=C(Cl)Cl)[C@@H](CCCC#CCC(Cl)Cl)NC=O
LC50 [1]: 1.7 µg/mL

CO[C@@H](CC[C@H](C)[C@H]1OC2=C(/C(=C/C(=O)O[C@@H]3CC(=O)O[C@@H]3C)[C@H](C)CC2(C)C)[C@H](OC)[C@@H]1C)c1cc(O)ccc1Br
inhibition at 10 µg/mL (Nitzschia amabilis): 30%

CCC[C@H]1NC(=O)c2csc(n2)[C@H](C)NC(=O)[C@H](C(C)C)N(C)C(=O)[C@H](Cc2ccccc2)N(C)C(=O)[C@H](C)OC(=O)[C@@H]1C [ULONGAMIDE A]
LC50 [1]: 18 µM | IC50 (N2a; n2a): 6 µM and 16 µM

CCC1CC(C)CC(=O)N(C)/C=C/CCC(C)C(=O)N[C@@H](C(C)C)C(=O)N(C)[C@@H](Cc2ccccc2)C(=O)N(C)[C@@H]([C@@H](C)O)C(=O)N(C)[C@@H](Cc2ccccc2)C(=O)O1 (some centres undefined)
LC50 [1]: 9 µM | IC50 (N2a; Mus musculus, N2a): 6 µM

CO[C@@H](CC[C@H](C)[C@H]1O[C@]23C[C@H](OC(=O)C[C@H]([C@@H](C)O)OC(=O)CC(=C(C)CC2(C)C)O3)[C@@H]1C)c1cc(O)ccc1Br
inhibition at 10 µg/mL (Nitzschia amabilis): 30%

C=C[C@@](C)(CCC=C(C)C)c1ccc2c3c1NC(=O)[C@@]3(O)C[C@@H](CO)NC(=O)[C@@H](C(C)C)N2C
Ki [2]: 1400 nM | IC50 (L1210 [3]): 98 µM | LD33 [4]: 89 mg/kg

CC[C@H](C)[C@H]1C(=O)N(C)[C@@H](C)C(=O)O[C@H](C(C)(C)C)C[C@@H](C)C[C@H](O)[C@H](C)C2=NC(/C=C(\C)C(=O)N[C@@H](Cc3ccc(OC)cc3)C(=O)N(C)[C@@H](C)C(=O)N1C)CS2 (some centres undefined)
IC50 (NCI-H460): 2 nM

COc1ccc(C[C@@H]2NC(=O)/C(C)=C/C3CSC(=N3)[C@@H](C)[C@@H](O)C[C@H](C)C[C@@H](C(C)(C)C)OC(=O)[C@H](C)N(C)C(=O)[C@H](C(C)C)N(C)C(=O)[C@H](C)N(C)C2=O)cc1 (some centres undefined)
IC50 (NCI-H460): 14 nM

CO[C@@H](CC[C@H](C)[C@H]1O[C@@]23C[C@H](OC(=O)C[C@H]([C@@H](C)O)OC(=O)/C=C(\O2)[C@@](C)(OO)CC3(C)C)[C@@H]1C)c1cc(O)ccc1Br
inhibition at 10 µg/mL (Nitzschia amabilis): 30%

CO[C@@H](CC[C@H](C)[C@H]1O[C@@]23C[C@H](OC(=O)C[C@H]([C@@H](C)O)OC(=O)/C=C(\O2)[C@@](C)(O)CC3(C)C)[C@@H]1C)c1cc(O)ccc1Br
inhibition at 10 µg/mL (Nitzschia amabilis): 30% | inhibition at 10 µg/mL (L1210 [5]): 10% | inhibition (INH) (L1210 [5]; dose 10 µg/ml): 20%

COC(=O)C(CCC#CC=C(Cl)Cl)C(CCC/C=C/CC(Cl)Cl)NC=O (centres undefined)
LC50 [1]: 1.7 µg/mL

CCCCCCCCC(O)C/C=C/CCC(=O)N(C)C/C(=C\Cl)C/C(=C\C(=O)N1CC(OC)=CC1=O)OC (centres undefined)
IC50 (L1210 [3]): 2.9 µM | LD50 [4]: 33.3 mg/kg

CO[C@@H](CC[C@H](C)[C@H]1O[C@]23C[C@H](OC(=O)C[C@@H]([C@@H](C)O)OC(=O)CC(=C(C)CC2(C)C)O3)[C@@H]1C)c1cccc(O)c1
inhibition at 10 µg/mL (Nitzschia amabilis): 30%

CCCCCCCCCCCCCC/C=C/CCC1OC1C(=O)N[C@H](C)CO (some centres undefined)
LC50 [1]: 13 µM

CCCCCCCC[C@@H](C/C=C/CCC(=O)NC/C(=C/Cl)[C@]12O[C@H]1[C@H](O)CCC2=O)OC
IC50 (N2a; Mus musculus, N2a): 4 µM | IC50 (NCI-H460): 4000 nM

CO[C@@H](CC[C@H](C)[C@H]1O[C@@]23C[C@H](OC(=O)C[C@H]([C@@H](C)O)OC(=O)/C=C(\O2)[C@@](C)(OO)CC3(C)C)[C@@H]1C)c1cccc(O)c1
inhibition at 10 µg/mL (L1210 [5]): 10%

CCCCCCCCCCCC/C=C/C[C@@H](O)[C@H](CO[C@@H]1O[C@H](CO)[C@@H](O)[C@H](O)[C@H]1O)NC(=O)CCCCCCCCCCCCCCCCCCCCCCCCC
IC50 (MCF7): 18.2 µg/mL (≈ 21.7 µM)

CCCCCCCCCCC[C@]1(CO)CCCC(=O)O1 [TANIKOLIDE]
LC50 [1]: 3.6 µg/mL

CCCCCCCC[C@@H](C/C=C/CCC(=O)NC/C(=C/Cl)C1=CCCCC1=O)OC
IC50 (N2a; Mus musculus, N2a): 0.49 µM | IC50 (NCI-H460): 1100 nM

CO[C@@H](CC[C@H](C)[C@H]1O[C@@]23C[C@H](OC(=O)C[C@@H]([C@@H](C)O)OC(=O)C[C@](OC)(O2)[C@H](C)CC3(C)C)[C@@H]1C)c1cc(O)ccc1Br
inhibition at 10 µg/mL (Nitzschia amabilis): 30%

CO/C(=C/C(=O)N1C(=O)C=C[C@@H]1C)CCNC(=O)CC/C=C/C(C)CC/C(=C\Cl)CCCC#CBr (some centres undefined)
IC50 (N2a; Mus musculus, N2a): 15 µM | IC50 (NCI-H460): 15000 nM

C=CC/C=C/N(C)C(=O)CCCCCCCC/C=C/[C@H](CSSC[C@@H](/C=C/CCCCCCCCC(=O)N(C)/C=C/CC=C)NC(C)=O)NC(C)=O
IC50 (N2a; Mus musculus, N2a): 1.4 µg/mL

C=C[C@@](C)(CCC=C(C)C)c1ccc2c3c(c[nH]c13)C[C@@H](CO)NC(=O)[C@H](C(C)C)N2C
Ki [2]: 0.11 nM | IC50 (L1210 [3]): 8.1 µM | LD100 [4]: 5 mg/kg

CCCCCCC[C@@H](C/C=C/CCC(=O)N(C)C/C(=C\Cl)C/C(=C\C(=O)N1CC=CC1=O)OC)OC
GI50 (MDA-MB-231): 40 µM | GI50 (HT-29): 40 µM | inhibition at 12.5 µg/mL [6]: 10% | GI50 (A549): 40 µM

— ChEMBL document CHEMBL5244246, “Recent advances in chemistry and bioactivity of marine cyanobacteria Moorea species” (Eur J Med Chem, 2020)
